Assay results published in ChEMBL document CHEMBL1201862, “PubChem BioAssay data set” (2004).
“And” between values parts separate entries of the source, which are not always exact repeats. Identical values can stand only once. The source made the active and inactive calls.

Tests used:
[1] = target: T1, Cytochrome P450 1A2 (Homo sapiens, UniProt P05177);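 further: PubChem cytochrome P450 panel assay, CYP1A2 panel member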
T1 sequence (P05177 whole entry): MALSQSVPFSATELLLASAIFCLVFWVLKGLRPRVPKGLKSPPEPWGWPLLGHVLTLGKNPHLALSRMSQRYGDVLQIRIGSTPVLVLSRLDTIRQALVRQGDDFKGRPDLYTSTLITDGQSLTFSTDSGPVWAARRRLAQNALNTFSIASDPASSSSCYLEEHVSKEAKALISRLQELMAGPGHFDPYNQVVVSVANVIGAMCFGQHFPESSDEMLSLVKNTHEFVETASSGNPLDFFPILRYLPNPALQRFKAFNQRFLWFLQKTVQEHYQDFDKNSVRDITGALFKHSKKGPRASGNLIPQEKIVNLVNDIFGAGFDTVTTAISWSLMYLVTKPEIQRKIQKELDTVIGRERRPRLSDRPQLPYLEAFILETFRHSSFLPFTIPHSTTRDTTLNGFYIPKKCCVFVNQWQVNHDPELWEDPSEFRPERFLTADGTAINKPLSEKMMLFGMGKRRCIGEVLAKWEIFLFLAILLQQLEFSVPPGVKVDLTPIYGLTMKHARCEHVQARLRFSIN

[2] = target: Cytochrome P450 2C19 (Homo sapiens, UniProt P33261); assay: Cytochrome panel assay with activity outcomes. Panel member name: p450-cyp2c19 Compounds with AC50 equal or less than 10 uM are considered active; format: functional
[3] = target: Cytochrome P450 2D6 (Homo sapiens, UniProt P10635);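 further: CYP2D6 member of a cytochrome P450 panel assay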
[4] = target: Cytochrome P450 3A4 (Homo sapiens, UniProt P08684);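 further: CYP3A4 tested as one member of a cytochrome P450 panel screen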
[5] = inhibitors of firefly luciferase expression or activity, dose response, H4 neuroglioma cells, luminescence (AID 1990); format: functional, cell-based
[6] = Luminescence Cell-Based Dose Response HTS to Identify Inhibitors of 5'UTR Stem-Loop Driven Prion Protein mRNA Translation in H4 Neuroglioblastoma Cells. [Related pubchem assays: 1827 (Project Summary), 1813 (Primary HTS)]; format: functional
[7] = inhibitors of SNCA 5'UTR-driven reporter translation, confirmation, H4 neuroglioma cells, luminescence (AID 1988); format: functional, cell-based
[8] = target: Cytochrome P450 2C9 (Homo sapiens, UniProt P11712)
[9] = target: T2, Protein skinhead-1 (Caenorhabditis elegans, UniProt P34707); format: functional
T2 sequence (P34707 whole entry): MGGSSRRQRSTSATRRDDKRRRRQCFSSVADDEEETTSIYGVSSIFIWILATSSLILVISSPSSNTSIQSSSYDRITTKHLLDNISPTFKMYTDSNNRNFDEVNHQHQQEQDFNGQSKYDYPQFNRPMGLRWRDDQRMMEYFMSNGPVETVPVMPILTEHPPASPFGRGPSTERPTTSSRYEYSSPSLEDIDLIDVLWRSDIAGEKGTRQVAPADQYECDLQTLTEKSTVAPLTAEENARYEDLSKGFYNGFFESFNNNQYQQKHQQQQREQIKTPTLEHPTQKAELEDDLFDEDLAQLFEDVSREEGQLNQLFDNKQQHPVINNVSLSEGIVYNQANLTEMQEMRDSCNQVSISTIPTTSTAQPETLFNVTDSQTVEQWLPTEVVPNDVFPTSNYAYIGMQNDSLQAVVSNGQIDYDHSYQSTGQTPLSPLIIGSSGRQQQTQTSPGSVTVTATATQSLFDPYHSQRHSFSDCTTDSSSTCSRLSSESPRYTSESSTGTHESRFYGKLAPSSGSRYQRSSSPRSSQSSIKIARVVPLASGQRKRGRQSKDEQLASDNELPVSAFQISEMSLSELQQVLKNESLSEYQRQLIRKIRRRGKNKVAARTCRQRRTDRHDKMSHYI

[10] = NIH-3T3 fibroblast cytotoxicity, dose response, cytotoxicity control, cell-based, fluorescence, Alamar Blue, secondary assay (AID 2327); format: functional;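 further: NIH-3T3 mouse fibroblasts cultured with fluconazole at 8 µg/mL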
[11] = target: T3, Heat shock factor protein 1 (Mus musculus, UniProt P38532); assay: inhibition of MG132-induced HSE-luciferase signal, confirmation, cell-based, NIH3T3, luminescence, dose retest (AID 2382); format: functional;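 further: NIH3T3 fibroblasts with HSF1-driven luciferase reporter stressed by proteasome inhibitor MG132; luminescence from HSF1-driven luciferase expression after 8 hours of MG132 stress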
T3 sequence (P38532 whole entry): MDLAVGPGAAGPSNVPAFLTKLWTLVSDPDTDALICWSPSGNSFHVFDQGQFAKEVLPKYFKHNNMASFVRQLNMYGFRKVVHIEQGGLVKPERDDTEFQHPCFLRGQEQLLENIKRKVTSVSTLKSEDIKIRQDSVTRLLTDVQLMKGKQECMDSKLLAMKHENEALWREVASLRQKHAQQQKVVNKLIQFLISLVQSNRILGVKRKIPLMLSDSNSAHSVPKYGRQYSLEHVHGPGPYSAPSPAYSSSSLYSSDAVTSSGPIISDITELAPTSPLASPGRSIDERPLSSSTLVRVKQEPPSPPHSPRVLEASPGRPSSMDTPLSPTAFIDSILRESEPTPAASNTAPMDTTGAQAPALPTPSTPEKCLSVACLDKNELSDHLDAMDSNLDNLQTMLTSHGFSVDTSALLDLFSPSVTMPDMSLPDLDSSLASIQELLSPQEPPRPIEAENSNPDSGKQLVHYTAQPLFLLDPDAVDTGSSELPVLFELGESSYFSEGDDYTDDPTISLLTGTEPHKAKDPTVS

Chain of Cytochrome P450 3A4 (P08684 whole entry): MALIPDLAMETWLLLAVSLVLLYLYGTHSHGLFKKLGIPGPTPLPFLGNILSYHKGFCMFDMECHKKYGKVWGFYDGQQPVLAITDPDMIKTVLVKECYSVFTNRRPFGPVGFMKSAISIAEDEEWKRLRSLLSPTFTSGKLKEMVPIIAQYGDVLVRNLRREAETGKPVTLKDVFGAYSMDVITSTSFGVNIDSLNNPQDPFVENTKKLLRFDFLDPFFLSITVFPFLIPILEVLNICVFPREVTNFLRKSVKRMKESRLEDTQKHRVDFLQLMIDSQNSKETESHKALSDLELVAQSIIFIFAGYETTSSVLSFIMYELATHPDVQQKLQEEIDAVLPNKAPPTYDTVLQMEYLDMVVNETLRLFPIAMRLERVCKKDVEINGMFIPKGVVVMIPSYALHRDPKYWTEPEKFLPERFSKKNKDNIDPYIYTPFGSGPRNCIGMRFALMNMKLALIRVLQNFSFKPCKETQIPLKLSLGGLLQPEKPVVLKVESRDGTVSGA
Chain of Cytochrome P450 2C9 (P11712 whole entry): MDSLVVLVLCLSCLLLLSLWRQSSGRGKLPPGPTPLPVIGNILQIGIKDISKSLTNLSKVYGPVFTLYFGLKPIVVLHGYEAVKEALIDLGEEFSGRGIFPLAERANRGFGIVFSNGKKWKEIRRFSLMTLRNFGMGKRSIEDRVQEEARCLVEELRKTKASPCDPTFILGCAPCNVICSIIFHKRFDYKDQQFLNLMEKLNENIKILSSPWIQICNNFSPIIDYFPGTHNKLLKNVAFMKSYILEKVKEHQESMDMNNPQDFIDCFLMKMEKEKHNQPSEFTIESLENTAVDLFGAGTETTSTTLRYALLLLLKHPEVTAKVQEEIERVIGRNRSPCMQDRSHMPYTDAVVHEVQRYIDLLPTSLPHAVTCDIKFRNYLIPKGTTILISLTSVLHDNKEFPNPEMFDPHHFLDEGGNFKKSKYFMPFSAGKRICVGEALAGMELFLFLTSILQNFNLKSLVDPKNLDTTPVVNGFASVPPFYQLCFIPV
Chain of Cytochrome P450 2D6 (P10635 whole entry): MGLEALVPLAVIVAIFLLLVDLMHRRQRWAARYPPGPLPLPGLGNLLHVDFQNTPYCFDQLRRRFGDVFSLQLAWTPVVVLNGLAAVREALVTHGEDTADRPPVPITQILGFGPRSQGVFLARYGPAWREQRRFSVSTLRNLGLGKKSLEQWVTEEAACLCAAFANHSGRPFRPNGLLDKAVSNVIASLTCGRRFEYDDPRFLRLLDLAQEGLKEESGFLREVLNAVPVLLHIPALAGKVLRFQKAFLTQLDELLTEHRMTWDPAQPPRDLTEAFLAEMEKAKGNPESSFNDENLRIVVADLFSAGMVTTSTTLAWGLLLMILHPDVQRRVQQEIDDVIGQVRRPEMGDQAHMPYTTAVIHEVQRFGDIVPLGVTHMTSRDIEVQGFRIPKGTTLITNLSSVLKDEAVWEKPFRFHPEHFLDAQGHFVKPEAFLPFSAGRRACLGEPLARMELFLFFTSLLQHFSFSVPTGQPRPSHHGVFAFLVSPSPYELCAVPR
Chain of Cytochrome P450 2C19 (P33261 whole entry): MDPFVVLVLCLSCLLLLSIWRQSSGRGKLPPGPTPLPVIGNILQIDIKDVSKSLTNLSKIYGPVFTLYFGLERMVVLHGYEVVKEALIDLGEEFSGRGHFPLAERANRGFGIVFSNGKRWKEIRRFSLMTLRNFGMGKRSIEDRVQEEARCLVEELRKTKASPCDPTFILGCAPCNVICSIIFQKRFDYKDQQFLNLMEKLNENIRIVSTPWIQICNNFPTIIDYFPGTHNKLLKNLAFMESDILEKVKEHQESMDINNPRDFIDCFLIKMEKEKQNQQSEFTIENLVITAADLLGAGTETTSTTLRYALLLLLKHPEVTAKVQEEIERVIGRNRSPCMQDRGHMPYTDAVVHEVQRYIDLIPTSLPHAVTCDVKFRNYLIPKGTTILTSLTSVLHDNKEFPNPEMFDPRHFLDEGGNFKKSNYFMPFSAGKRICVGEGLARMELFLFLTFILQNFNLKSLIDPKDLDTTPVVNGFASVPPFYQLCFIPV

Nc1nnnn1CCO
AC50 [1]: 6.31 µM (inconclusive)

Cc1cnc(CNc2ncnc3ccc(-c4ccccc4C(F)(F)F)cc23)cn1
AC50 ([2]; read-out: AC50): 20 µM (inconclusive) | AC50 [3]: 25.1 µM (inconclusive)

c1ccc(CN2CC[C@@]3(CCCNC3)C2)cc1
AC50 [3]: 15.8 µM (inconclusive) | AC50 [4]: 10 µM (inconclusive)

O=C(NC1(C(F)(F)F)NC(=O)N(Cc2cccnc2)C1=O)c1ccccc1 (stereo unspecified)
EC50 [5]: > 120 µM (not active) | EC50 [6]: > 120 µM (not active) | EC50 [7]: > 120 µM (not active) | AC50 [4]: 0.891 µM (inconclusive) | AC50 [8]: 17.8 µM (inconclusive)

CCn1c(SCC(=O)Nc2ccc(NC(=O)c3cccs3)cc2)nnc1-c1cccnc1
IC50 [9]: > 100 µM (inactive)

CCc1nnc(NC(=O)CSc2nnc(COc3cccc(C)c3)o2)s1
IC50 [9]: > 100 µM (inactive)

CC(=O)N1CCC2(CCCN(Cc3cc(C(F)(F)F)cc(C(F)(F)F)c3)C2)CC1
AC50 [3]: 39.8 µM (inconclusive) | AC50 [4]: 15.8 µM (inconclusive)

CCN(CC)S(=O)(=O)c1cccc(-c2nnc(SCC(=O)c3cc(C)n(C4CC4)c3C)o2)c1
IC50 [9]: > 100 µM (inactive)

O=C(COC(=O)c1cccc(S(=O)(=O)N2CCOCC2)c1)Nc1nc(-c2ccccc2Cl)cs1
AC50 [1]: 8.91 µM (inconclusive) | AC50 [4]: 11.2 µM (inconclusive)

CN(C)c1ccc(/N=C/c2cccn2C)cc1
EC50 [10]: 25.9 µM (active)

Brc1ccc(CSc2nnc(-c3cccnc3)o2)cc1
IC50 [9]: 54.5 µM (inactive)

O=C(OCCN1CCOCC1)C1(c2ccccc2)CCCCC1
AC50 ([2]; read-out: AC50): 6.31 µM (inconclusive) and 10 µM (inconclusive) | AC50 [3]: 12.6 µM (inconclusive) and 6.31 µM (inconclusive) | AC50 [1]: 31.6 µM (inconclusive) | AC50 [8]: 10 µM (inconclusive) and 15.8 µM (inconclusive)

O=C(NCc1nnc(S)n1-c1ccc(F)cc1)c1ccc(S(=O)(=O)N2CCOCC2)cc1
IC50 [9]: > 100 µM (inactive)

C[C@H](N)C1CCC(C(=O)Nc2ccncc2)CC1 (stereo partly specified)
AC50 [3]: 15.8 µM (inconclusive) | AC50 [4]: 15.8 µM (inconclusive)

Cc1c(C)n(C)c2ccc(C(=O)NCCN3CCOCC3)cc12
IC50 [9]: > 100 µM (inactive)

O=C(CSc1c[nH]c2ccccc12)N1CCOCC1
AC50 [1]: 17.8 µM (inconclusive)

COc1ccc(C(=O)N2CCC3(CC2)CN(Cc2ccc(C#N)cc2)C3)cc1
AC50 [3]: 12.6 µM (inconclusive) | AC50 [4]: 0.631 µM (inconclusive)

O=C(Nc1ccccc1N1CCOCC1)c1ccc(S(=O)(=O)NCc2ccco2)cc1
EC50 [10]: > 150 µM (inactive)

COc1cccc(Nc2ncc3nc(-c4cn(C)c5ccccc45)c(=O)n(CCC#N)c3n2)c1
AC50 [1]: 20 µM (inconclusive) | AC50 [4]: 1.58 µM (inconclusive)

O=C(NCC1CCCO1)c1nn2c(c1Cl)NC(c1ccc(F)cc1)CC2C(F)(F)F (stereo unspecified)
AC50 [1]: 12.6 µM (inconclusive) | AC50 [4]: 14.1 µM (inconclusive)

Cc1ccc(S(=O)(=O)N2CCCC(C(=O)NCCCN3CCCCC3C)C2)cc1 (stereo unspecified)
AC50 [2]: inconclusive | AC50 [3]: 17.8 µM (inconclusive)

N#C/C=C1\n2c(nc3ccccc32)OC12CCCCC2
EC50 [5]: > 120 µM (not active) | EC50 [6]: > 120 µM (not active) | EC50 [7]: > 120 µM (not active)

O=C(O)c1cc(-c2cccc3ccccc23)nc2ccccc12
EC50 [11]: > 195 µM (not active) | IC50 [9]: > 100 µM (inactive)

c1ccc(CSc2nnc(-c3cccs3)o2)cc1
IC50 [9]: 30.2 µM (active)

Cc1cc(C)n(CC(O)Cn2c(C)c(C)c3ccccc32)n1 (stereo unspecified)
IC50 [9]: > 100 µM (inactive)

COC(=O)CCC(=O)NNC(=O)c1ccc(Br)cc1
AC50 [1]: 11.2 µM (inconclusive)

CCOc1c2ccc(C(=O)NCc3ccc(OC(F)(F)F)cc3)cc2nn1CC
AC50 ([2]; read-out: AC50): 39.8 µM (inconclusive) | AC50 [3]: 25.1 µM (inconclusive) | AC50 [1]: 14.1 µM (inconclusive) | AC50 [8]: 39.8 µM (inconclusive)

CC(=O)Nc1nnc(CCN2CCCCC2)s1
AC50 [2]: inconclusive | AC50 [3]: 1.26 µM (inconclusive)

Cc1ccc(-c2[nH]ncc2/C=C(\C#N)C(=O)NC2CCCCC2)cc1
EC50 [6]: 71.5 µM (active) | EC50 [7]: > 120 µM (not active) | IC50 [9]: > 100 µM (inactive)

Cn1cccc1C(=O)N1CCC2(CCCN(Cc3ccc(C#N)cc3)C2)CC1
AC50 [1]: 12.6 µM (inconclusive) | AC50 [4]: 15.8 µM (inconclusive)

CCNc1ncc2nc(-c3cccc(C#N)c3)c(=O)n(C)c2n1
AC50 [3]: 2 µM (inconclusive) | AC50 [4]: 31.6 µM (inconclusive)

O=C(CSc1nnnn1-c1ccccc1)NCc1cccs1
AC50 [1]: 31.6 µM (inconclusive)

O=C1COc2ccc(OCc3ccc(F)cc3)cc21
AC50 [1]: 7.08 µM (inconclusive)

CN(Cc1ccc(-n2cccn2)cc1)C(=O)c1cnn2c1NC(c1ccco1)CC2C(F)(F)F (stereo unspecified)
EC50 [5]: > 120 µM (not active) | EC50 [6]: > 120 µM (not active) | EC50 [7]: 31.5 µM (active)

Cc1ccc(CSc2nc3c(c(=O)[nH]c(=O)n3C)n2CCC(C)C)cc1
EC50 [5]: 24.8 µM (active) | EC50 [6]: 19.4 µM (active) | EC50 [7]: 16.2 µM (active)
